# Measured values from patent US10961205B2, “1,2,4-oxadiazole derivatives as immunomodulators” (Aurigene Discovery Technologies Limited, priority 2013, dated 2021).
# Test system: PD-L1
# Assay: Rescue of mouse splenocyte proliferation in presence of recombinant PD-L1 (CFSE proliferation assay)
# Assay type: cell-based
# Conditions: anti-CD3/CD28 stimulated mouse splenocytes in presence of ligand (PDL-1), 72 h, stimulated splenocyte proliferation normalised as 100%
# Procedure: Rescue of Mouse Splenocyte Proliferation in Presence of Recombinant PD-L1/PD-L2
# Recombinant mouse PD-L1 (rm-PDL-1, cat no: 1019-B7-100 & rh-PDL-1, cat no: 156-B7-100, R&D Systems) were used as the source of PD-L1.
# Mouse splenocytes harvested from 6-8 weeks old C57 BL6 mice; RPMI 1640 (GIBCO, Cat #11875); DMEM with high glucose (GIBCO, Cat #D6429); Fetal Bovine Serum [Hyclone, Cat #SH30071.03]; Penicillin (10000 unit/mL)-Streptomycin(10,000 μg/mL) Liquid (GIBCO, Cat #15140-122); MEM Sodium Pyruvate solution 100 mM (100×), Liquid (GIBCO, Cat #11360); Nonessential amino acid (GIBCO, Cat #11140); L-Glutamine (GIBCO, Cat #25030); Anti-CD3 antibody (eBiosciences—16-0032); Anti-CD28 antibody (eBiosciences—16-0281); ACK lysis buffer (1 mL) (GIBCO, Cat #-A10492); Histopaque (density-1.083 gm/mL) (SIGMA 10831); Trypan blue solution (SIGMA-T8154); 2 mL Norm Ject Luer Lock syringe-(Sigma 2014-12); 40 μm nylon cell strainer (BD FALCON 35230); Hemacytometer (Bright line-SIGMA Z359629); FACS Buffer (PBS/0.1% BSA): Phosphate Buffered Saline (PBS) pH 7.2 (HiMedia TS1006) with 0.1% Bovine Serum Albumin (BSA) (SIGMA A7050) and sodium azide (SIGMA 08591); 5 mM stock solution of CFSE: CFSE stock solution was prepared by diluting lyophilized CFSE with 180 μL of Dimethyl sulfoxide (DMSO C2H6SO, SIGMA-D-5879) and aliquoted in to tubes for further use. Working concentrations were titrated from 10 μM to 1 μM. (eBioscience—650850-85); 0.05% Trypsin and 0.02% EDTA (SIGMA 59417C); 96-well format ELISA plates (Corning CLS3390); BD FACS caliber (E6016); Recombinant mouse B7-H1/PDL1 Fc Chimera, (rm-PD-L1 cat no: 1019-B7-100).
# Splenocytes harvested in a 50 mL falcon tube by mashing mouse spleen in a 40 μm cell strainer were further treated with 1 mL ACK lysis buffer for 5 min at room temperature. After washing with 9 mL of RPMI complete media, cells were re-suspended in 3 mL of 1×PBS in a 15 mL tube. 3 mL of Histopaque was added carefully to the bottom of the tube without disturbing overlaying splenocyte suspension. After centrifuging at 800×g for 20 min at room temperature, the opaque layer of splenocytes was collected carefully without disturbing/mixing the layers. Splenocytes were washed twice with cold 1×PBS followed by total cell counting using Trypan Blue exclusion method and used further for cell based assays.
# Splenocytes were cultured in RPMI complete media (RPMI+10% fetal bovine serum+1 mM sodium pyruvate+10,000 units/mL penicillin and 10,000 μg/mL streptomycin) and maintained in a CO2 incubator with 5% CO2 at 37° C.
# CFSE is a dye that passively diffuses into cells and binds to intracellular proteins. 1×10^6 cells/mL of harvested splenocytes were treated with 5 μM of CFSE in pre-warmed 1×PBS/0.1% BSA solution for 10 min at 37° C. Excess CFSE was quenched using 5 volumes of ice-cold culture media to the cells and incubated on ice for 5 min. CFSE labelled splenocytes were further given three washes with ice cold complete RPMI media. CFSE labelled 1×10^5 splenocytes added to wells containing either MDA-MB231 cells (1×10^5 cells cultured in high glucose DMEM medium) or recombinant […] PDL-1 (100 ng/mL) and test compounds. Splenocytes were stimulated with anti-mouse CD3 and anti-mouse CD28 antibody (1 μg/mL each), and the culture was further incubated for 72 h at 37° C. with 5% CO2. Cells were harvested and washed thrice with ice cold FACS buffer and % proliferation was analyzed by flow cytometry with 488 nm excitation and 521 nm emission filters.
# Percent splenocyte proliferation was analyzed using cell quest FACS program and percent rescue of splenocyte proliferation by compound was estimated after deduction of % background proliferation value and normalising to % stimulated splenocyte proliferation (positive control) as 100%.
# Stimulated splenocytes: Splenocytes+anti-CD3/CD28 stimulation
# Background proliferation: Splenocytes+anti-CD3/CD28+PD-L1
# Compound proliferation: Splenocytes+anti-CD3/CD28+PD-L1+Compound […]
row,SMILES,Percent rescue of splenocyte proliferation @ 100 nM compound concentration [%]
1,CC(O)[C@@H](NC(=O)N[C@@H](CC(N)=O)c1nc([C@@H](N)CO)no1)C(=O)O (some centres unmarked) [Compound 11],90
2,COC(=O)[C@@H](NC(=O)N[C@@H](CC(N)=O)c1nc([C@@H](N)CO)no1)C(C)O (some centres unmarked) [Compound 6],84
3,CC(O)[C@@H](NC(=O)N[C@H](CC(N)=O)c1nc([C@H](N)CO)no1)C(=O)O (some centres unmarked) [Compound 15],83
4,CC(O)[C@H](NC(=O)N[C@@H](CC(N)=O)c1nc([C@@H](N)CO)no1)C(N)=O (some centres unmarked) [Compound 7],55
5,CC(O)[C@H](NC(=O)N[C@H](CC(N)=O)c1nc([C@H](N)CO)no1)C(=O)O (some centres unmarked) [Compound 17],55
6,CC(O)[C@H](N)c1noc([C@H](CCC(N)=O)NC(=O)N[C@@H](CO)C(=O)O)n1 (some centres unmarked) [Compound 22],55
7,CC(O)[C@H](NC(=O)N[C@@H](CC(N)=O)c1nc([C@@H](N)CO)no1)C(=O)O (some centres unmarked) [Compound 4],89
8,NC(=O)C[C@H](N)c1nc([C@@H](N)CO)no1 [Compound 1],93
9,CCCC(=O)N[C@@H](CO)c1noc([C@H](CC(N)=O)NC(=O)N[C@H](C(=O)O)C(C)O)n1 (some centres unmarked) [Compound 9],34
10,N[C@@H](CO)c1noc([C@H](CC(=O)O)NC(=O)N[C@@H](CO)C(=O)O)n1 [Compound 25],91
11,COC[C@H](N)c1noc([C@H](CC(N)=O)NC(=O)N[C@H](C(=O)O)C(C)O)n1 (some centres unmarked) [Compound 10],49
12,CC(O)[C@H](NC(=O)N[C@@H](CC(=O)O)c1nc([C@@H](N)CO)no1)C(=O)O (some centres unmarked) [Compound 24],52
13,CC(O)[C@@H](NC(=O)N[C@H](CC(N)=O)c1nc([C@@H](N)CO)no1)C(=O)O (some centres unmarked) [Compound 18],64
14,CC(O)[C@@H](N)c1noc([C@@H](CC(N)=O)NC(=O)N[C@H](CO)C(=O)O)n1 (some centres unmarked) [Compound 5],67.6
15,NC(=O)CC[C@H](NC(=O)N[C@@H](CO)C(=O)O)c1nc([C@@H](N)CO)no1 [Compound 21],47
16,NC(=O)C[C@H](NC(=O)N[C@@H](CO)C(=O)O)c1nc([C@@H](N)CO)no1 [Compound 2],50
17,N[C@@H](CO)c1noc([C@H](CCC(=O)O)NC(=O)N[C@@H](CO)C(=O)O)n1 [Compound 8],67
18,CC(O)[C@H](NC(=O)N[C@@H](CCC(=O)O)c1nc([C@@H](N)CO)no1)C(=O)O (some centres unmarked) [Compound 19],88
19,CC(O)[C@H](NC(=O)N[C@H](CC(N)=O)c1nc([C@@H](N)CO)no1)C(=O)O (some centres unmarked) [Compound 13],74
20,CC(O)[C@@H](NC(=O)N[C@@H](CC(N)=O)c1nc([C@H](N)CO)no1)C(=O)O (some centres unmarked) [Compound 16],72
21,CC(O)[C@H](NC(=O)N[C@@H](CC(N)=O)c1nc([C@H](N)CO)no1)C(=O)O (some centres unmarked) [Compound 12],64
22,CC(O)[C@H](NC(=O)N[C@@H](CCC(N)=O)c1nc([C@@H](N)CO)no1)C(=O)O (some centres unmarked) [Compound 20],69
23,CC(O)[C@H](NC(=O)N[C@@H](CCC(N)=O)c1nc([C@@H](N)C(C)O)no1)C(=O)O (some centres unmarked) [Compound 23],74
